According to ChEMBL document CHEMBL5620416, “Design, synthesis and development of a dual inhibitor of Topoisomerase 1 and poly (ADP-ribose) polymerase 1 for efficient killing of cancer cells” (Eur J Med Chem, 2023):
Calls of active or inactive are those of the source. The calls are words filed in the database; no cut-off is given here.

Experiments:
HCT-116 [1] = assay: Cytotoxicity against human HCT-116 cells incubated for 72 hrs by MTT assay; assay type: functional, cell-based; conditions: HCT-116, 72 h
MIA PaCa-2 [2] = assay: Cytotoxicity against human MIA PaCa-2 cells incubated for 72 hrs by MTT assay; assay type: functional, cell-based; conditions: MIA PaCa-2, 72 h
PANC-1 [3] = assay: Cytotoxicity against human PANC-1 cells incubated for 72 hrs by MTT assay; assay type: functional, cell-based; conditions: PANC-1, 72 h
HCT-116 [4] = assay: Cytotoxicity against human HCT-116 cells at greater than 10 uM incubated for 7 to 10 days by crystal violet staining based assay; assay type: functional, cell-based; conditions: time 7-10 day
MIA PaCa-2 [5] = assay: Cytotoxicity against human MIA PaCa-2 cells at greater than 10 uM incubated for 7 to 10 days by crystal violet staining based assay; assay type: functional, cell-based; conditions: time 7-10 day
PANC-1 [6] = assay: Cytotoxicity against human PANC-1 cells at greater than 10 uM incubated for 7 to 10 days by crystal violet staining based assay; assay type: functional, cell-based; conditions: time 7-10 day
Calf thymus DNA = assay: Binding affinity to calf thymus pUC19 DNA assessed as intercalating activity by measuring conformational change in DNA at 50 to 100 uM incubated for 30 mins by EtBr staining based agarose gel electrophoresis; assay type: nucleic-acid assay; conditions: Bos taurus, dose 50-100 µM
HCT-116 [7] = assay: Cytotoxicity against human HCT-116 cells at less than 10 uM incubated for 7 to 10 days by crystal violet staining based assay; assay type: functional, cell-based; conditions: time 7-10 day
MIA PaCa-2 [8] = assay: Cytotoxicity against human MIA PaCa-2 cells at less than 10 uM incubated for 7 to 10 days by crystal violet staining based assay; assay type: functional, cell-based; conditions: time 7-10 day
PANC-1 [9] = assay: Cytotoxicity against human PANC-1 cells at less than 10 uM incubated for 7 to 10 days by crystal violet staining based assay; assay type: functional, cell-based; conditions: time 7-10 day
HCT-116 [10] = assay: Induction of PARylation in human HCT-116 cells at 20 uM incubated for 2 to 8 hrs by Western blotting analysis; assay type: functional, cell-based; conditions: time 2-8 hrs
HCT-116 [11] = assay: Induction of TOP1-DNA covalent complex PARlyation in human HCT-116 cells at 1 uM measured upto 24 hrs by RADAR assay; assay type: functional, cell-based
[12] = test system: DNA topoisomerase 1/Deoxyribonucleic acid (Homo sapiens); assay: Induction of TOP1-DNA covalent complex stabilization in human HCT-116 cells at 10 to 20 uM after 4 to 6 hrs by RADAR assay; assay type: cell-based; conditions: dose 10-20 µM, time 4-6 hrs
[13] = test system: DNA topoisomerase 1/Deoxyribonucleic acid (Homo sapiens); assay: Induction of TOP1-DNA covalent complex stabilization in human HCT-116 cells at 10 to 20 uM after 2 hrs by RADAR assay; assay type: cell-based; conditions: dose 10-20 µM
[14] = test system: DNA topoisomerase 1/Deoxyribonucleic acid (Homo sapiens); assay: Induction of TOP1-DNA covalent complex degradation in human HCT-116 cells at 1 uM by RADAR assay; assay type: cell-based; conditions: time 2-24 hrs, TDE = time-dependent effect

| SMILES | IC50 (HCT-116 [1]) [µM] | IC50 (MIA PaCa-2 [2]) [µM] | IC50 (PANC-1 [3]) [µM] | Activity (HCT-116 [4]) | Activity (MIA PaCa-2 [5]) | Activity (PANC-1 [6]) | also measured |
| --- | --- | --- | --- | --- | --- | --- | --- |
| COc1ccc(Cc2nn(CCCc3nnc(SCCN4C(=O)c5cccc6cccc(c56)C4=O)o3)c(=O)c3ccccc23)cc1 | > 25 | > 25 | > 25 | Active | Active | Active |  |
| O=C1c2cccc3cccc(c23)C(=O)N1CCSc1nnc(Cn2nc(Cc3ccccc3)c3ccccc3c2=O)o1 | > 25 | > 25 | > 25 | Active | Active | Active |  |
| O=C1c2cccc3cccc(c23)C(=O)N1CCSc1nnc(CCn2nc(Cc3ccccc3)c3ccccc3c2=O)o1 | > 25 | > 25 | > 25 |  |  |  |  |
| COc1cccc2c1C(=O)c1c(O)c3c(c(O)c1C2=O)C[C@@](O)(C(=O)CO)C[C@@H]3O[C@H]1C[C@H](N)[C@H](O)[C@H](C)O1 |  |  |  |  |  |  | Activity (Calf thymus DNA): Active |
| COc1ccc(Cc2nn(Cc3nnc(SCCN4C(=O)c5cccc6cccc(c56)C4=O)o3)c(=O)c3ccccc23)cc1 | 13.5 | 14 | 13 |  |  |  | Activity (HCT-116 [7]): Active; Activity (MIA PaCa-2 [8]): Active; Activity (PANC-1 [9]): Active |
| O=C1c2cccc3cccc(c23)C(=O)N1CCSc1nnc(CCCn2nc(Cc3ccc(F)cc3)c3ccccc3c2=O)o1 | > 25 | > 25 | > 25 | Active | Active | Active |  |
| O=C1c2cccc3cccc(c23)C(=O)N1CCCc1nnc(Cn2nc(Cc3ccc(F)cc3)c3ccccc3c2=O)o1 | > 25 | > 25 | > 25 | Active | Active | Active |  |
| O=C(c1cc(Cc2n[nH]c(=O)c3ccccc23)ccc1F)N1CCN(C(=O)C2CC2)CC1 [OLAPARIB] | 9 | 8 | 7 |  |  |  | Activity (HCT-116 [10]): inactive |
| CC[C@@]1(O)C(=O)OCc2c1cc1n(c2=O)Cc2cc3ccccc3nc2-1 |  |  |  |  |  |  | Activity (HCT-116 [11]): Active; Activity [12]: inactive; Activity [13]: Active; Activity [14]: Tde |
| O=C1c2cccc3cccc(c23)C(=O)N1CCSc1nnc(CCCn2nc(Cc3ccccc3)c3ccccc3c2=O)o1 | > 25 | > 25 | > 25 | Active | Active | Active |  |
| O=C1c2cccc3cccc(c23)C(=O)N1CCSc1nnc(CCn2nc(Cc3ccc(F)cc3)c3ccccc3c2=O)o1 | 12.5 | 11 | 13 |  |  |  | Activity (HCT-116 [7]): Active; Activity (MIA PaCa-2 [8]): Active; Activity (PANC-1 [9]): Active |
| O=C1c2cccc3cccc(c23)C(=O)N1CCCc1nnc(CCn2nc(Cc3ccc(F)cc3)c3ccccc3c2=O)o1 | > 25 | > 25 | > 25 | Active | Active | Active |  |
| O=C1NC(=O)c2cccc3cccc1c23 | 15 | 18 | 20 |  |  |  |  |
| CN(C)c1ccc2cc3ccc(N(C)C)cc3nc2c1 |  |  |  |  |  |  | Activity (Calf thymus DNA): Active |
| COc1ccc(Cc2nn(CCc3nnc(SCCN4C(=O)c5cccc6cccc(c56)C4=O)o3)c(=O)c3ccccc23)cc1 | > 25 | > 25 | > 25 | Active | Active | Active |  |
